Test results from patent publication US5994369A, “Substituted piperidine or pyrrolidine compounds for treating sigma-receptor modulated disorders” (Byk Gulden Lomberg Chemische Fabrik GmbH, priority 1995, dated 1999).
pKi: −log10 of the molar value.

Legend:
NMDA receptors = assay: NMDA receptor affinity (MK 801 binding)
Experimental: The affinity and selectivity of the compounds described above in greater detail for sigma receptors in comparison with NMDA receptors were determined following published methods (Kornhuber et al.: Eur. J. Pharmacol. 162, 483-490, 1989 and Neurosci. Lett. 163, 129-131, 1993).

Sigma receptors = Sigma receptors (Homo sapiens, UniProt Q99720); assay: Sigma receptor affinity (pentazocine binding)
Chain of Sigma receptors (Q99720 whole entry): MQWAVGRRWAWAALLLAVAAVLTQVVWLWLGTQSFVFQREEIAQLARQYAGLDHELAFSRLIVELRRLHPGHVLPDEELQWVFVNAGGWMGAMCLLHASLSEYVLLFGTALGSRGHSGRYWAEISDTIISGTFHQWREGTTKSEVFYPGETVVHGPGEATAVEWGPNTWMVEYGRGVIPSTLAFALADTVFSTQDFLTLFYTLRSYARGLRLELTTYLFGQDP

**Q.** `NC12CC3CC(CC(C3)C1)C2` [Amantadine] was tested. Which pKi (NMDA receptors) did it give?
**A.** Its pKi is 4.98.

**Q.** What does the source list for `CC(C)(C)N1CCC(c2ccccc2)(c2ccccc2)CC1` [Budipine, budipine]?
**A.** pKi (Sigma receptors): 5.70; pKi (NMDA receptors): 4.93

**Q.** `CC12CC3CC(C)(C1)CC(N)(C3)C2` [Memantine] was tested. Which pKi (Sigma receptors) did it give?
**A.** The pKi was 4.70.

**Q.** What about the pKi (NMDA receptors) of the same molecule?
**A.** Its pKi is 6.30.
